The values that follow come from article PMC7765375, “Novel Heme Oxygenase-1 (HO-1) Inducers Based on Dimethyl Fumarate Structure” (International Journal of Molecular Sciences, 2020).

Counter-ions that a name gives are not always drawn. Like-named read-outs stand apart in the source and are kept apart here.

The test system of data set [1] is HO-1. In words: HO-1 expression by ELISA in LX-2 cell lysates. Format: cell-based, human. The settings on record: for fold induction at 1 µM / fold induction at 5 µM / fold induction at 10 µM: Homo sapiens, LX-2, 24 h; for fold induction at 1 µM / fold induction at 5 µM / fold induction at 10 µM / Fold Induction (ELISA): 24 h, LX-2 cells lysate, vs control group, mean ± SD of triplicate; for potency as HO-1 inducers relative to DMF: LX-2 cells, more active than DMF. As to the method: (§1) LX 2 cell lines were bought from American Type Culture Collection (Rockville, MD, USA). Upon defrosting, the cells were seeded in 6-well plates and maintained in a medium DMEM low glucose supplemented with 10% FBS and a 1% Penicillin and Streptomycin solution. The obtained cell cultures were left at 37 °C in an incubator with 5% CO2, and the culture medium was changed after 3 or 4 days. Sub-confluent cells were treated over a period of 24 h using various concentrations (1, 5, 10 µM) of compounds 1a–o, 2a–c, and dimethyl fumarate (DMF) previously dissolved in DMSO. Control groups were treated with only DMSO.
The commercially available ELISA kit (ADI-EKS-800, Enzo Life Sci) was used to measure heme oxygenase […] (HO-1) protein concentration in LX2 cellular lysates. The test was performed in agreement with the protocol reported by the manufacturer. Absorbance at λ = 450 nm was measured and the concentration of HO-1 was calculated from a standard curve previously created using purified HO-1 protein. Results were expressed as folds of change compared to the control group. Individual measurement was performed in triplicate and data were reported as averages.

Data set [2] relates to LX-2 cells. In words: MTT assay of cell viability. Format: cell-based, human. Here is the method: as §1
An MTT assay was performed to monitor cell viability, measuring the conversion of tetrazolium salt to yield colored formazan, the amount of which was proportional to the number of living cells. Regarding this assay, LX2 cells were seeded at a concentration of […] cells per well, in a 96-multiwell flat-bottomed 200 μL microplate. The optical density of each well was measured with a microplate spectrophotometer reader (Synergy HT, BioTek) at λ = 570 nm.
(In general: Tetrazolium assays rely on reduction of a dye to a coloured formazan, in cell work by metabolically active cells.)

The test system of data set [3] is LX-2 cells. In words: ROS assay with DCFH-DA, palmitic acid (PA)-mediated ROS production. Format: cell-based, human. The settings on record: 24 h; for ROS production mediated by palmitic acid (PA), co-treatment: 5 μM compound + PA 300 μM, p < 0.05 vs. PA. As to the method:
Determination of the reactive oxygen species (ROS) was performed using a fluorescent probe 2′,7′-dichlorofluorescein diacetate (DCFH-DA). The fluorescence (corresponding to the oxidized radical species 2′,7′-dichlorofluorescein, DCF) was monitored spectrofluorometrically (excitation, λ = 488 nm; emission, λ = 525 nm). Results were reported as fluorescence intensity. Concerning the experiments, the cells were seeded in 96-well plates at a density of 1 × 10^4 cells per well. Then, the cells were treated for 24 h with DMEM containing a no cytotoxic concentration of palmitic acid (PA) 300 μM in the presence or absence of compound 1b, 1l, 1m and dimethyl fumarate (DMF) (5 μM).

For the molecule `O=C(/C=C/C(=O)Oc1ccccc1)Oc1ccccc1` [Compound 1a, (2E)-2-Butenedioic acid, 1,4-diphenyl ester], the melting point (usually the temperature, or range, at which the solid turns liquid) was 164 to 165 °C. Moreover, the fold induction (in general, the signal under treatment as a multiple of the control signal) at 1 µM in data set [1] (1 μM) was 6.65 ± 0.15. Further, the fold induction at 5 µM in data set [1] (5 μM) worked out at 7.93 ± 0.18. Besides, the fold induction at 10 µM in data set [1] (10 μM) amounted to 8.16 ± 0.32. Further, the IC50 – broadly, the concentration that inhibits the measured activity by half – in data set [2] (Homo sapiens) was > 50 µM.
Regarding `O=C(/C=C/C(=O)Oc1ccc(Cl)cc1)Oc1ccc(Cl)cc1` [Compound 1b, (2E)-2-Butenedioic acid, 1,4-bis(4-chlorophenyl) ester], the melting point lay in the range of 178 to 179 °C. The “ROS production mediated by palmitic acid (PA), co-treatment” value (“ROS production mediated by palmitic acid” for short) in data set [3] is given as “significantly reversed the effect mediated by PA”. Moreover, in data set [1] (1 μM), the fold induction at 1 µM came out at 8.81 ± 0.2. The fold induction at 5 µM in data set [1] (5 μM) amounted to 8.19 ± 0.21. In data set [1] (10 μM), the fold induction at 10 µM amounted to 11.7 ± 0.41. In addition, the “potency as HO-1 inducers relative to DMF” value in data set [1] is 2–3 fold. For the same molecule, the IC50 in data set [2] (Homo sapiens) is > 50 µM.
For `O=C(/C=C/C(=O)Oc1ccc(I)cc1)Oc1ccc(I)cc1` [Compound 1c, (2E)-2-Butenedioic acid, 1,4-bis(4-iodophenyl) ester], the melting point lay in the range of 266 to 267 °C. In addition, the fold induction at 1 µM in data set [1] (1 μM) is 6.02 ± 0.13. In data set [1] (5 μM), the fold induction at 5 µM came to 7.7 ± 0.19. Besides, in data set [1] (10 μM), the fold induction at 10 µM was 8.13 ± 0.23. In data set [2] (Homo sapiens), the IC50 was 20.8 ± 1.5 µM.
`O=C(/C=C/C(=O)Oc1ccc(C(F)(F)F)cc1)Oc1ccc(C(F)(F)F)cc1` [Compound 1d, (2E)-2-Butenedioic acid, 1,4-bis(4-trifluoromethyphenyl) ester] registered a melting point of 122 to 123 °C. Moreover, the fold induction at 5 µM in data set [1] (5 μM) was 1.4 ± 0.03. Moreover, in data set [1] (10 μM), the fold induction at 10 µM worked out at 0.68 ± 0.02. The IC50 in data set [2] (Homo sapiens) is > 50 µM.
In turn, `N#Cc1ccc(OC(=O)/C=C/C(=O)Oc2ccc(C#N)cc2)cc1` [Compound 1e, (2E)-2-Butenedioic acid, 1,4-bis(4-cyanophenyl) ester] displayed a melting point of 230 to 232 °C. The fold induction at 1 µM in data set [1] (1 μM) came out at 3.68 ± 0.21. In data set [1] (5 μM), the fold induction at 5 µM turned out to be 5.22 ± 0.11. Also, in data set [1] (10 μM), the fold induction at 10 µM was 6.5 ± 0.17. In data set [2] (Homo sapiens), the IC50 is > 50 µM.
For `Cc1ccc(OC(=O)/C=C/C(=O)Oc2ccc(C)cc2)cc1` [Compound 1f], in that order: 160 to 161 °C, 1.82 ± 0.09, 3.94 ± 0.13, 3.76 ± 0.15 and > 50 µM.
The molecule `COc1ccc(OC(=O)/C=C/C(=O)Oc2ccc(OC)cc2)cc1` [Compound 1g, (2E)-2-Butenedioic acid, 1,4-bis(4-methoxyphenyl) ester] returned a melting point of 180 to 181 °C. Also, in data set [1] (1 μM), the fold induction at 1 µM was 0.3 ± 0.01. Moreover, the fold induction at 5 µM in data set [1] (5 μM) worked out at 0.76 ± 0.02. The fold induction at 10 µM in data set [1] (10 μM) was 0.9 ± 0.06. For the same molecule, the IC50 in data set [2] (Homo sapiens) is 22.3 ± 1.8 µM.
On to `O=C(/C=C/C(=O)Oc1ccccc1C(=O)O)Oc1ccccc1C(=O)O` [Compound 1h, (2E)-2-Butenedioic acid, 1,4-bis(2-carboxyphenyl) ester], for which the fold induction at 1 µM in data set [1] (1 μM) is 6.37 ± 0.22. The fold induction at 5 µM in data set [1] (5 μM) was 7.45 ± 0.21. In data set [1] (10 μM), the fold induction at 10 µM turned out to be 9.95 ± 0.19. Also, in data set [2] (Homo sapiens), the IC50 was > 50 µM.
For the molecule `O=C(/C=C/C(=O)OCc1ccccc1)OCc1ccccc1` [Compound 1i, (2E)-2-Butenedioic acid, 1,4-bis(phenylmethyl) ester], the melting point fell in the range of 59 to 61 °C. In addition, the fold induction at 1 µM in data set [1] (1 μM) came out at 3.4 ± 0.18. The fold induction at 5 µM in data set [1] (5 μM) was 5.86 ± 0.19. For the same molecule, in data set [1] (10 μM), the fold induction at 10 µM was 7.34 ± 0.28. In addition, in data set [2] (Homo sapiens), the half-maximal inhibitory concentration (IC50) came out at 17.7 ± 1.3 µM.
Take `O=C(/C=C/C(=O)OCCc1ccccc1)OCCc1ccccc1` [Compound 1j, (2E)-2-Butenedioic acid, 1,4-bis(phenylethyl) ester]: the melting point was in the range of 77 to 79 °C. Besides, the fold induction at 1 µM in data set [1] (1 μM) was 2.29 ± 0.1. The fold induction at 5 µM in data set [1] (5 μM) came out at 5.91 ± 0.17. For the same molecule, in data set [1] (10 μM), the fold induction at 10 µM worked out at 8.47 ± 0.33. Also, the half-maximal inhibitory concentration (IC50) in data set [2] (Homo sapiens) is > 50 µM.
As for `O=C(/C=C/C(=O)OCCCc1ccccc1)OCCCc1ccccc1` [Compound 1k, (2E)-2-Butenedioic acid, 1,4-bis(phenylpropyl) ester], the fold induction at 1 µM in data set [1] (1 μM) amounted to 2.26 ± 0.09. Also, in data set [1] (5 μM), the fold induction at 5 µM is 5.98 ± 0.16. The fold induction at 10 µM in data set [1] (10 μM) was 9.55 ± 0.27. Moreover, the IC50 in data set [2] (Homo sapiens) was > 50 µM.
Turning to `O=C(/C=C/C(=O)Nc1ccccc1)Nc1ccccc1` [Compound 1l, (E)-N, N’-Diphenyl-2-butenediamide], the melting point lay within 332 to 333 °C. Moreover, the “ROS production mediated by palmitic acid” value in data set [3] is “significantly reversed the effect mediated by PA”. Further, the fold induction at 1 µM in data set [1] (1 μM) stood at 6.9 ± 0.14. The fold induction at 5 µM in data set [1] (5 μM) was determined as 9.74 ± 0.25. Also, the fold induction at 10 µM in data set [1] (10 μM) came to 10.2 ± 0.29. In addition, the “potency as HO-1 inducers relative to DMF” value in data set [1] was 2–3 fold. The IC50 in data set [2] (Homo sapiens) was > 50 µM.
Take `O=C(/C=C/C(=O)NCc1ccccc1)NCc1ccccc1` [Compound 1m, (E)-N, N’-Diphenylmethyl-2-butenediamide]: the “ROS production mediated by palmitic acid” value in data set [3] was “significantly reversed the effect mediated by PA”. Further, the “Fold Induction (ELISA)” value in data set [1] (5 μM, 5 µM) is on record as 14.15 ± 0.34 fold. In addition, the fold induction at 1 µM in data set [1] (1 μM) is > 7. Moreover, the fold induction at 5 µM in data set [1] (5 μM) is > 14. The fold induction at 10 µM in data set [1] (10 μM) was determined as 13.8 ± 0.35. In addition, in data set [1], the “potency as HO-1 inducers relative to DMF” value is listed as 2–3 fold. For the same molecule, the concentration for half-maximal inhibition (IC50) in data set [2] (Homo sapiens) stood at 18.6 ± 1.4 µM.
The molecule `COC(=O)/C=C/C(=O)Oc1ccccc1` [Compound 2a, (2E)-2-Butenedioic Acid, Methyl Phenyl Ester] gave a melting point of 54 to 55 °C. Besides, the 50% inhibitory concentration (IC50) in data set [2] (Homo sapiens) is > 50 µM.
With `COC(=O)/C=C/C(=O)OCc1ccccc1` [Compound 2b, (2E)-2-Butenedioic acid, methyl phenylmethyl ester], the melting point was in the range of 50 to 51 °C. In addition, the fold induction at 10 µM in data set [1] (10 μM) amounted to 0.28. The IC50 in data set [2] (Homo sapiens) is > 50 µM.
On to `COC(=O)/C=C/C(=O)OCCc1ccccc1` [Compound 2c, (2E)-2-Butenedioic acid, methyl phenylethyl ester], for which the melting point was in the range of 44 to 45 °C. In data set [2] (Homo sapiens), the half-inhibitory concentration (IC50) is > 50 µM.
As to `COC(=O)/C=C/C(=O)OC` [DMF, dimethyl fumarate], in data set [3], the “ROS production mediated by palmitic acid” value is given as “significantly reversed the effect mediated by PA”. Also, the fold induction at 1 µM in data set [1] (1 μM) is 2.78 ± 0.09. The fold induction at 5 µM in data set [1] (5 μM) amounted to 7.63 ± 0.31. Further, the fold induction at 10 µM in data set [1] (10 μM) worked out at 8.3 ± 0.23. In addition, the half-inhibitory concentration (IC50) in data set [2] (Homo sapiens) was > 50 µM.
Regarding `CCCCCCCCCCCCCCCC(=O)O` [PA, palmitic acid, reference compound], the “ROS production, PA alone” value in data set [3] (PA 300 μM, p < 0.05 vs. control) was “increased ROS production”.
Take “(E)-N, N’-Diphenylethyl-2-butenediamide [Compound 1n]”: the entries for the “Fold Induction (ELISA)” value in data set [1] (1 μM), in data set [1] (5 μM) and in data set [1] (10 μM) were 5.82 ± 0.12 fold, 7.52 ± 0.21 fold and 8.40 ± 0.38 fold, respectively. The IC50 in data set [2] was > 50 µM.
As to “(E)-N, N’-Diphenylpropyl-2-butenediamide [Compound 1o]”, the “Fold Induction (ELISA)” value in data set [1] (1 μM) is 4.85 ± 0.13 fold; in data set [1] (5 μM), 6.93 ± 0.23 fold; in data set [1] (10 μM), 6.30 ± 0.21 fold. Further, the half-maximal inhibitory concentration (IC50) in data set [2] is > 50 µM.
